Data on 6 molecules can be found in patent US10231453B2, “5-substituted imidazole derivatives” (BAYER CROPSCIENCE AKTIENGESELLSCHAFT, priority 2015, dated 2019).

In general, chromatographic logP refers to a lipophilicity value derived from retention on a column. Lower therefore signals lower lipophilicity.

The subject of one data set is Alternaria brassicae. In words: In vivo preventive test on Alternaria brassicae (leaf spot on radish), Examples A and R1. Particulars: Alternaria brassicae, 144 h, 500 ppm of active ingredient, preventive spray, evaluated 6 days after inoculation, read-out: efficacy.
The test system of a further data set is Sphaerotheca fuliginea. In words: In vivo preventive test on Sphaerotheca fuliginea (powdery mildew on cucurbits), Examples F and R6. The settings on record: Podosphaera fuliginea, 360 h; 500 ppm of active ingredient; gherkin, preventive spray, evaluated 15 days after inoculation; read-out: efficacy.
The next data set concerns Septoria tritici. In words: In vivo preventive test on Septoria tritici (leaf spot on wheat), Examples E, Q3 and R5. Particulars: Zymoseptoria tritici, 576 h, 500 ppm of active ingredient; wheat, preventive spray, evaluated 24 days after inoculation; read-out: efficacy.
In the next data set the test system is Puccinia recondita. As to the kind of experiment: In vivo preventive test on Puccinia recondita (brown rust on wheat), Examples C and R3. Particulars: Puccinia recondita, 264 h; 500 ppm of active ingredient; wheat, preventive spray, evaluated 11 days after inoculation; read-out: efficacy.
The next data set concerns Pyrenophora teres. As to the kind of experiment: In vivo preventive test on Pyrenophora teres (net blotch on barley), Examples D, Q2 and R4. The settings on record: Pyrenophora teres, 336 h, 500 ppm of active ingredient, preventive spray, evaluated 14 days after inoculation, read-out: efficacy.
Data set [1] can be described thus: Measurement of LogP values by HPLC on reversed phase columns (EEC directive 79/831 Annex V.A8). In kind it is physicochemical. Particulars: method [a]: LC-UV, acidic range, 0.1% formic acid in water and acetonitrile as eluent; Table 1. The procedure: Measurement of Log P values was performed as outlined above.
Another data set relates to Uromyces appendiculatus. In words: In vivo preventive test on Uromyces appendiculatus (bean rust), Examples G and R7. The settings on record: 264 h, 500 ppm of active ingredient, bean, preventive spray, evaluated 11 days after inoculation, read-out: efficacy.
In data set [2] the test system is Blumeria graminis fsp. hordei. In words: In vivo preventive Blumeria test (barley), Example K. The settings on record: 168 h, 500 ppm of active ingredient, preventive spray, evaluated 7 days after inoculation, read-out: efficacy. The text has this: After the spray coating has been dried, the plants are dusted with spores of Blumeria graminis fsp. hordei.
Data set [3] relates to Fusarium nivale (var. majus). In words: In vivo preventive Fusarium nivale (var. majus) test (wheat), Example O. The settings on record: Microdochium nivale, 120 h, 500 ppm of active ingredient, preventive spray, evaluated 5 days after inoculation, read-out: efficacy. The text has this:
After the spray coating has been dried, the plants are slightly injured by using a sandblast and afterwards they are sprayed with a conidia suspension of Fusarium nivale (var. majus).

The subject of the next data set is Venturia inaequalis. As to the kind of experiment: In vivo preventive Venturia test (apples), Example J. Particulars: 240 h, read-out: efficacy.
For a further data set, the system named is Pyricularia oryzae. In words: whole plant or invertebrate. The data set is classed as in vivo. Particulars: 192 h, read-out: efficacy.
A further data set deals with Alternaria solani. As to the kind of experiment: In vivo preventive Alternaria test (tomatoes), Example H. Particulars: 72 h, 100 ppm of active ingredient, preventive spray, evaluated 3 days after inoculation, read-out: efficacy.
In the next data set the test system is Fusarium graminearum. In words: whole plant or invertebrate. The data set is classed as in vivo. Particulars: in Hordeum vulgare, 120 h, read-out: efficacy.
The subject of the next data set is Botrytis cinerea. As to the kind of experiment: In vivo preventive test on Botrytis cinerea (grey mould) on gherkin, Examples B, Q1 and R2. Particulars: Botrytis cinerea, 500 ppm of active ingredient, preventive spray, evaluated 4 to 5 days after inoculation, read-out: efficacy.
The test system of a further data set is Phakopsora pachyrhizi. As to the kind of experiment: In vivo preventive Phakopsora test (soybeans), Example I. The settings on record: 168 h, 100 ppm of active ingredient, preventive spray, evaluated 7 days after inoculation, read-out: efficacy.

Procedure for Venturia inaequalis: After the spray coating has dried on, the plants are inoculated with an aqueous conidia suspension of the causal agent of apple scab (Venturia inaequalis) and then remain for 1 day in an incubation cabinet at approximately 20° C. and a relative atmospheric humidity of 100%.
The plants are then placed in a greenhouse at approximately 21° C. and a relative atmospheric humidity of approximately 90%.
The test is evaluated 10 days after the inoculation.

On to `COC(=O)c1cncn1CC(O)(Cc1ccccc1Cl)C1(Cl)CC1` (centres unmarked) [Example I-01], for which the pest or weed control at 500 ppm in the data set with Alternaria brassicae was in the range of 80 to 89%; in the data set with Sphaerotheca fuliginea it was 90 to 100%; in the data set with Septoria tritici, 90 to 100%; in the data set on Puccinia recondita it was 90 to 100%; in the data set on Pyrenophora teres, 90 to 100%; in the data set with Uromyces appendiculatus it was 90 to 100%. In addition, the results for the pest or weed control at 500 ppm in data set [2] and in data set [3] were 90 to 100% and 70 to 79%, respectively. In addition, the chromatographic logP in data set [1] was 2.82.

With `N#Cc1cncn1CC(O)(Cc1ccccc1Cl)C1(F)CC1` (centres unmarked) [Example I-98], the pest or weed control at 100 ppm in the data set on Venturia inaequalis, with Alternaria solani and with Phakopsora pachyrhizi was 90 to 100% throughout. Besides, the pest or weed control at 500 ppm in the data set on Sphaerotheca fuliginea, in the data set with Pyricularia oryzae, in the data set on Septoria tritici, in the data set with Puccinia recondita, with Pyrenophora teres and in the data set on Fusarium graminearum was 90 to 100% throughout. Also, the results for the pest or weed control at 500 ppm (in the data set with Uromyces appendiculatus; in data set [2]; in the data set on Botrytis cinerea) were 90 to 100%, 90 to 100% and 70 to 79%, respectively. The molecule also came in with a chromatographic logP in [1] of 2.53.

`N#Cc1cncn1CC(O)(Cc1ccc(F)c(F)c1F)C1(Cl)CC1` (centres unmarked) [Example I-103]: the pest or weed control at 100 ppm fell in the range of 80 to 89% with Venturia inaequalis, 80 to 89% in the data set on Alternaria solani and 90 to 100% with Phakopsora pachyrhizi. Further, the pest or weed control at 500 ppm in the data set with Sphaerotheca fuliginea is 90 to 100%; in the data set with Septoria tritici, 90 to 100%; in the data set on Puccinia recondita it was 90 to 100%; with Pyrenophora teres, 80 to 89%; in the data set on Fusarium graminearum, 90 to 100%; in the data set on Uromyces appendiculatus, 90 to 100%. Also, in [2], the pest or weed control at 500 ppm was in the range of 90 to 100%. The same molecule gave a chromatographic logP in [1] of 2.92.

As to `OC(Cc1ccc(F)cc1F)(Cn1cncc1Cl)C1(Cl)CC1` (centres unmarked) [Example I-126], the pest or weed control at 500 ppm in the data set on Sphaerotheca fuliginea, in the data set on Pyricularia oryzae, with Septoria tritici, in the data set on Puccinia recondita, in the data set with Pyrenophora teres and with Fusarium graminearum was 90 to 100% in each case. Further, the pest or weed control at 500 ppm (with Uromyces appendiculatus; in data set [2]; in the data set on Botrytis cinerea) was 90 to 100% each time. Besides, the pest or weed control at 100 ppm in the data set on Alternaria solani and with Phakopsora pachyrhizi was 90 to 100% each time.

With `CC(C)(C)C(O)(Cc1ccccc1F)Cn1cncc1C#N` (centres unmarked) [Example I-138], the pest or weed control at 100 ppm in the data set with Venturia inaequalis was 70 to 79%; with Phakopsora pachyrhizi, 90 to 100%. For the same molecule, the pest or weed control at 500 ppm in the data set on Sphaerotheca fuliginea is 90 to 100%; in the data set on Pyricularia oryzae it was 80 to 89%; in the data set with Septoria tritici it was 90 to 100%; in the data set on Puccinia recondita, 90 to 100%; in the data set on Fusarium graminearum, 90 to 100%; with Uromyces appendiculatus, 90 to 100%. Moreover, the pest or weed control at 500 ppm is 90 to 100% in [2] and 80 to 89% in the data set with Botrytis cinerea. In addition, in [1], the chromatographic logP was found to be 2.73.

In the case of `CC1(C(O)(Cc2cccc(F)c2F)Cn2cncc2C#N)CC1` (centres unmarked) [Example I-144], the pest or weed control at 500 ppm with Sphaerotheca fuliginea is 90 to 100%; in the data set on Pyricularia oryzae it was 70 to 79%; in the data set on Septoria tritici it was 90 to 100%; with Puccinia recondita it was 90 to 100%; with Pyrenophora teres, 90 to 100%; in the data set on Fusarium graminearum, 90 to 100%. Moreover, the pest or weed control at 500 ppm (in the data set with Uromyces appendiculatus; in data set [2]; in the data set on Botrytis cinerea) was 90 to 100% throughout. The chromatographic logP in [1] was determined as 2.75.
